The assay has as its target T1, IRAK4 kinase protein in THP-1 cells (Homo sapiens, UniProt Q9NWZ3).
T1 construct: endogenous in cells; host or cells: THP-1 cells
T1 sequence (Q9NWZ3 1-460): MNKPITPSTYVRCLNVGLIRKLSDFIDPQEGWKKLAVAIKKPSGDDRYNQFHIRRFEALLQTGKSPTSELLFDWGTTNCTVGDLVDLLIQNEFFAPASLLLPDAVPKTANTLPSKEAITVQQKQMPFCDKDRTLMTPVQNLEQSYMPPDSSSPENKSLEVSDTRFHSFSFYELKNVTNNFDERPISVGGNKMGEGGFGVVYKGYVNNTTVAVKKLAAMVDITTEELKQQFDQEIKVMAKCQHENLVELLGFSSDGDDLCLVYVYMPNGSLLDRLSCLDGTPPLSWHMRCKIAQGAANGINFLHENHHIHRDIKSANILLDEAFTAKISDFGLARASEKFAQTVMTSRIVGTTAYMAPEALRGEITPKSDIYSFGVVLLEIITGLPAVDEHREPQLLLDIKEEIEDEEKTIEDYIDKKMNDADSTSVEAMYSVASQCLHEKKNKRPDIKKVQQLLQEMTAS
The experiment in a line: Degradation of IRAK4 in THP-1 cells by Western Blot. It counts as cell-based. As to conditions: 24 hours. Here is the method:
Each well of the 24-well cell culture plate was inoculated with 0.95 mL THP-1 cells (stem cell bank of Chinese academy of sciences) with a cell density of 5×10^5 cells/well. The cell plate was placed in a 5% carbon dioxide incubator and cultured overnight at 37° C., then 50 μL compound in dimethyl sulfoxide was added. The final concentration of the compound was in the range of 1-3000 nM. After continuous cultivation for 24 hours, the cells were collected into a 1.5 mL centrifuge tube, centrifuged at 1000 rpm and 4° C. for 5 minutes. Cell precipitation was washed twice with 1×DPBS, resuspended cells were lysed with 200 μL lysate (cell lysate was Western and IP cell lysate (Beyotime), supplemented with 1 mM mixture of phenylmethylsulfonyl fluoride and protease inhibitor (Beyotime)), left on ice for 30 minutes, then centrifuged at 14000 g at 4° C. for 10 minutes, and the supernatant was taken to detect IRAK4 protein level by Western blot.
The total protein concentration in the supernatant of cell lysis was determined by BCA protein quantitative kit (Tiangen). According to the concentration of total protein detected by BCA, the supernatant was adjusted to […] with PBS and 5×SDS-PAGE protein loading buffer (Beyotime), bathed in water at 100° C. for 10 minutes, then placed in ice bath for 5 minutes, centrifuged at 14000 g and 4° C. for 5 minutes, and then collected as WB loading sample. Prefabricated glue (KeyGEN) was used for protein electrophoresis with a loading amount of 10 μL (total protein 2 μg). After Tris-MOPS-SDS electrophoresis solution (Adamas), 120V constant pressure electrophoresis was performed. After electrophoresis, the protein on the adhesive strip was transferred to PVDF membrane with a constant current of […] for 50 minutes. After the membrane was transferred, the membrane was added in 1×QuickBlock blocking buffer (Beyotime) and incubated for 30 minutes at room temperature. After blocking, PVDF membranes were incubated with IRAK4 primary antibody (Abcam) overnight at 4°, the membranes were washed with TBST buffer (2.4 g Tris, 8.8 g NaCl, 1.5 mL Tween 20, pH adjusted to 7.4, constant volume to 1 L) for 30 minutes, incubated with secondary antibody (Abcam) for 2 hours at room temperature, finally incubated with Clarity Western ECL Substrate (BIO-RAD) for 5 minutes for luminescence development, chemiluminescence imaging system (Clinx, chemiScope 6200 Touch) was used for development and protein mapping photography. The protein map was analyzed by Clinx chemiluminescence analysis software for grayscale values. Using the formula: grayscale correction value=(target protein grayscale value/corresponding internal reference grayscale value)×[…], the grayscale correction value of each sample was calculated. The degradation rate was calculated by comparing with the grayscale correction value of the control group. Furthermore, DC50 and Dmax values of the compound were obtained by the nonlinear curve fitting with the logarithmic concentration-inhibition rate by GraphPad Prism 7.
Background: In western blotting, separated proteins are transferred to a membrane and probed.

One may read the DC50 as the concentration giving 50% degradation. As usually defined, the Dmax is the greatest extent of degradation seen.

Regarding `CC(C)(O)c1cc2nn(C3CCN(CCCC4CCN(c5ccc6c(c5)C(=O)N(C5CCC(=O)NC5=O)C6=O)CC4)CC3)cc2cc1NC(=O)c1cccc(C(F)(F)F)n1` (stereo not shown) [Example 6, N-(2-(1-(3-(1-(2-(2,6-dioxopiperidin-3-yl)-1,3-dioxoisoindolin-5-yl)piperidin-4-yl)propyl)piperidin-4-yl)-6-(2-hydroxyprop-2-yl)-2H-indazol-5-yl)-6-(trifluoromethyl) pyridinecarboxamide], for the setting “IRAK4 degradation in THP-1 cells, read-out: WB DC50”, the DC50 worked out at 11.9 nM. Also, the greatest degradation seen (Dmax) (IRAK4 degradation in THP-1 cells, read-out: WB Dmax) amounted to 90.9%. Also, the “WB D(%) (300 nM)” value (degradation percentage of IRAK4 in THP-1 cells, compound 300 nM) worked out at 89.5%. For the same molecule, the “WB D(%) (1000 nM)” value (degradation percentage of IRAK4 in THP-1 cells, compound 1000 nM) is on record as 87.3%.
